# Reference: ChEMBL document CHEMBL1201862, “PubChem BioAssay data set” (2004)
# Calls of active or inactive are those of the source.
# Assays:
# Cytochrome P450 1A2 = target: T1, Cytochrome P450 1A2 (Homo sapiens, UniProt P05177);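 further: PubChem cytochrome P450 panel assay, CYP1A2 panel member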
# T1 sequence (P05177 whole entry): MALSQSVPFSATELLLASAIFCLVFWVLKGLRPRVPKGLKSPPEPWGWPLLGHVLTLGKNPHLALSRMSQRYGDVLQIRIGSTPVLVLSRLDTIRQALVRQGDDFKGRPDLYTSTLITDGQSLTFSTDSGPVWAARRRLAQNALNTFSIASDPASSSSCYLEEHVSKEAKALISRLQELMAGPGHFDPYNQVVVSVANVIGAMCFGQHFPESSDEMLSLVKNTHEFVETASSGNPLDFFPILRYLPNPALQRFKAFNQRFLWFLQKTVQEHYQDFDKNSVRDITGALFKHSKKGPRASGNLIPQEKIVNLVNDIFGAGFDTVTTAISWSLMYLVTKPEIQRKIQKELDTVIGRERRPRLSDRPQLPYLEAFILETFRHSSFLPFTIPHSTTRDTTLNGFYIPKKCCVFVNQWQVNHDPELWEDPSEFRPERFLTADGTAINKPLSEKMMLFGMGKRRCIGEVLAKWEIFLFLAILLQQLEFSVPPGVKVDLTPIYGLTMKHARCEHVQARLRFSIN
# H4 = assay: Luminescence Cell-Based Dose Response HTS to Identify Activators of 5'UTR Stem-Loop Driven Prion Protein mRNA Translation in H4 Neuroglioblastoma Cells. [Related pubchem assays: 1829 (Project Summary), 1814 (Primary HTS)]; assay type: functional; details: Homo sapiens
# [1] = Luminescence Cell-Based Dose Response HTS to Identify Activators of Luciferase Translation or Activity in H4 […] Cells. [Related pubchem assays: 1829 (Project Summary), 1814 (Primary HTS)]; assay type: functional
# [2] = luciferase reporter signal suppression in cells – H4 neuroglioma cells, luminescence, dose response (AID 1990); assay type: functional, cell-based
# [3] = Luminescence Cell-Based Dose Response HTS to Identify Inhibitors of 5'UTR Stem-Loop Driven Prion Protein mRNA Translation in H4 Neuroglioblastoma Cells. [Related pubchem assays: 1827 (Project Summary), 1813 (Primary HTS)]; assay type: functional
# Cytochrome P450 3A4 = Cytochrome P450 3A4 (Homo sapiens, UniProt P08684);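 further: CYP3A4 tested as one member of a cytochrome P450 panel screen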
# [4] = alpha-synuclein stem-loop luciferase translation blockers – H4 neuroglioma cells, luminescence, confirmation (AID 1988); assay type: functional, cell-based
# Cytochrome P450 2C19 = Cytochrome P450 2C19 (Homo sapiens, UniProt P33261); assay: Cytochrome panel assay with activity outcomes. Panel member name: p450-cyp2c19 Compounds with AC50 equal or less than 10 uM are considered active; assay type: functional; details: read-out: AC50
# [5] = NIH-3T3 fibroblast cytotoxicity, dose response, cytotoxicity control, cell-based, fluorescence, Alamar Blue, secondary assay (AID 2327); assay type: functional;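 further: NIH-3T3 mouse fibroblasts cultured with fluconazole at 8 µg/mL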
# [6] = fluconazole-exposed Candida albicans growth modulators – fluorescence, retest, confirmation (AID 2467); assay type: functional, cell-based
# Cytochrome P450 2D6 = Cytochrome P450 2D6 (Homo sapiens, UniProt P10635);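 further: CYP2D6 member of a cytochrome P450 panel assay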
# cells = assay type: functional
# [7] = Trypanosoma cruzi growth suppression in host cells – NIH3T3 host cells, beta-gal luminescence, confirmation (AID 2044); assay type: functional, cell-based;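 further: intracellular parasites grown in NIH/3T3 mouse fibroblasts as host cells; luminescent beta-galactosidase reporter signal from transgenic T. cruzi replicating inside host cells; inhibitors lower the luminescence signal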
# INS1 = assay: INS-1E survival protection against cytokine death – cell-based, luminescence, retest, dose response (AID 449756); assay type: functional; details: Rattus norvegicus;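 further: cell death triggered by IL-1 beta plus TNF-alpha plus IFN-gamma mixture; protective hits raise ATP signal compared with cytokine alone wells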
# [8] = NIH3T3 cell viability loss – ATP luminescence, mouse fibroblasts, counter-screen, dose response (AID 2010); assay type: functional, cell-based; details: NIH3T3;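 further: cells exposed to compound for about 90 hours before reading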
# Cytochrome P450 2D6, sequence (P10635 whole entry): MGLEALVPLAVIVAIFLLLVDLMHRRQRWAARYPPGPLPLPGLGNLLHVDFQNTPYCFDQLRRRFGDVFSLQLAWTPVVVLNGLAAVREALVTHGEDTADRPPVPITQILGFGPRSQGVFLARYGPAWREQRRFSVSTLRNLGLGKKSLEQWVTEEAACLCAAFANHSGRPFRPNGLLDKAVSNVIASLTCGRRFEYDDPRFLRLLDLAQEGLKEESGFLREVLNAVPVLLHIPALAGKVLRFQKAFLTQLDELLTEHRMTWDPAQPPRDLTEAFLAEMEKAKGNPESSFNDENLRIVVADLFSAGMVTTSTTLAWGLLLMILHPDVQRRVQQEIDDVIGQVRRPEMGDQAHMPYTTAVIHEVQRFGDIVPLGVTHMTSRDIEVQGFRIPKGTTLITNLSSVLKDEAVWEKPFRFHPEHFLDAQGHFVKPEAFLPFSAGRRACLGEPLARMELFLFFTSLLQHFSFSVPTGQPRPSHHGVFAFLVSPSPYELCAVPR
# Cytochrome P450 2C19, sequence (P33261 whole entry): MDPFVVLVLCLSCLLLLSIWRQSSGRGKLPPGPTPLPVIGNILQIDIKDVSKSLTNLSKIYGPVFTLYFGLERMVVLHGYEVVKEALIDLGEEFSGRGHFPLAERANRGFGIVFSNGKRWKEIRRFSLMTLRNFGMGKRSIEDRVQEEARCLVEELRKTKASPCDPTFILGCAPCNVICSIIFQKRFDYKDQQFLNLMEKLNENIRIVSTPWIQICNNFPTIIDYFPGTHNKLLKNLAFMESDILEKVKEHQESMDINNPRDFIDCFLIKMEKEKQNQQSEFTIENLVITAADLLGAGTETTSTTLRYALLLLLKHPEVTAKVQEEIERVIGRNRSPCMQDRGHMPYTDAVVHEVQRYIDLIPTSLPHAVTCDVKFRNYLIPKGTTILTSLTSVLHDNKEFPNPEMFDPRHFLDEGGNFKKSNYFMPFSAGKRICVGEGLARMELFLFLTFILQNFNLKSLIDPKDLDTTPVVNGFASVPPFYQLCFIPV
# Cytochrome P450 3A4, sequence (P08684 whole entry): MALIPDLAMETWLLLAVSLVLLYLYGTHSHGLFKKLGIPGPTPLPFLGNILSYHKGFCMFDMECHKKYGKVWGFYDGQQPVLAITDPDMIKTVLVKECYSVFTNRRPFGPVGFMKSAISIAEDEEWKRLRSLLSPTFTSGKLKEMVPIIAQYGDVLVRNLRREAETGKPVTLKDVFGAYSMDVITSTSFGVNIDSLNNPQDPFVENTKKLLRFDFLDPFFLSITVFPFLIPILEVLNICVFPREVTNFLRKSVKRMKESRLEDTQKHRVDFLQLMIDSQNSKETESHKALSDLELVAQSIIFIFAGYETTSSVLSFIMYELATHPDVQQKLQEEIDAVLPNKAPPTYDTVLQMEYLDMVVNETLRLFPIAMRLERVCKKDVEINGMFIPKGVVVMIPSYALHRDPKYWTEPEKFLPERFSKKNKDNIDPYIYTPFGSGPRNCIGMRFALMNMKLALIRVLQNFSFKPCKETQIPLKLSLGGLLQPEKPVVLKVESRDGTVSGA
smiles,measurement,setting,value
COc1cc(-c2nnc(SCC(=O)Nc3ccc4c(c3)OCCO4)o2)cc(OC)c1OC,AC50,Cytochrome P450 1A2,15.8 µM (inconclusive)
CCOC(=O)c1nnc2cc(-c3ccc(Br)cc3)nn2c1C,EC50,H4,88.8 µM (active)
same,EC50,[1],27.6 µM (active)
Cc1cc(C)c(S(C)(=O)=O)c(Oc2ccc(C(C)(C)C)cc2)n1,EC50,[2],15.7 µM (active)
same,EC50,[3],1.08 µM (active)
same,AC50,Cytochrome P450 3A4,14.1 µM (inconclusive)
same,EC50,[4],80.7 µM (active)
N[C@@](C(=O)O)(c1ccc(P(=O)(O)O)cc1)C1CC1,AC50,Cytochrome P450 2C19,25.1 µM (inconclusive)
same,AC50,Cytochrome P450 1A2,50.1 µM (inconclusive)
Cc1ccccc1Nc1ncccc1C(=O)N1CCOCC1,EC50,[5],> 160 µM (inactive)
same,EC50,[6],> 38 µM (not active)
CN(C)c1ncc2ncc(=O)n(C)c2n1,AC50,Cytochrome P450 2D6,20 µM (inconclusive)
CCOc1ccc2c(ccc(/C=C/c3cc(C)c4cccnc4c3O)[n+]2C)c1,AC50,Cytochrome P450 2D6,3.16 µM (inconclusive)
same,AC50,Cytochrome P450 1A2,6.31 µM (inconclusive)
CN(C)c1ncnc2ccc(-c3ccoc3)cc12,AC50,Cytochrome P450 2C19,39.8 µM (inconclusive)
same,AC50,Cytochrome P450 3A4,12.6 µM (inconclusive)
COC(CN(C)C(=O)c1ccc2c(c1)NC(=O)c1ccccc1S2)OC,EC50,[5],> 150 µM (inconclusive)
same,EC50,[6],> 38 µM (not active)
COc1ccccc1CCn1c(=O)c(CCc2ccccc2)nc2cncnc21,AC50,Cytochrome P450 2D6,25.1 µM (inconclusive)
Cc1cccc(Cn2ccc(NC(=O)c3ccc4c(c3)OCO4)n2)c1,IC50,cells,2.33 µM (active)
CCn1cc(C(=O)c2ccccc2)c2ccccc21,EC50,[5],> 160 µM (inactive)
same,EC50,[6],3.63 µM (active)
CCc1cc2c(=O)c(-c3cnn(-c4ccccc4)c3)coc2c(CN2CCOCC2)c1O,AC50,Cytochrome P450 1A2,15.8 µM (inconclusive)
N#Cc1cc(-c2ccccc2)cnc1Sc1ccc(Cl)cc1,AC50,Cytochrome P450 3A4,12.6 µM (inconclusive)
same,AC50,Cytochrome P450 2D6,10 µM (inconclusive)
CCCOc1ccccc1C1CC(=O)NC(C)=C1C(=O)OCC(C)C (stereo not given),AC50,Cytochrome P450 1A2,11.2 µM (inconclusive)
CC(C)OC(=O)COc1ccc(-c2ccccc2)cc1,IC50,cells,6.13 µM (active)
COc1ccc(S(=O)(=O)N2CC3C4C=CC(C4)C3C2)cc1 (stereo not given),AC50,Cytochrome P450 2D6,15.8 µM (inconclusive)
COc1ccccc1N1CCN(C(=O)C(NS(=O)(=O)c2cccs2)c2ccccc2)CC1 (stereo not given),AC50,Cytochrome P450 2D6,15.8 µM (inconclusive)
same,AC50,Cytochrome P450 1A2,2.51 µM (inconclusive)
Cc1cc(C)c2cc(CN(CCO)C(=O)Nc3ccc(F)cc3)c(O)nc2c1,EC50,[2],18.3 µM (active)
same,EC50,[3],> 120 µM (not active)
same,EC50,[4],> 120 µM (not active)
Nc1nc(Br)c2c(F)cccc2c1-c1ccc(F)cc1,AC50,Cytochrome P450 2C19,1.12 µM (inconclusive)
Cc1cc(C)nc(SCC(=O)Nc2ccccc2[N+](=O)[O-])n1,AC50,Cytochrome P450 1A2,17.8 µM (inconclusive)
CC(=O)c1ccc(N=Nc2ccc(N(C)C)cc2)cc1,EC50,[3],4.44 µM (active)
same,EC50,[4],4.11 µM (inconclusive)
Cc1ccc2c(c1)S/C(=C/c1ccc[n+](CCO)c1)N2C,EC50,[7],0.832 µM (active)
same,AC50,INS1,2.98 µM (active)
same,EC50,[8],> 60 µM (not active)
CNC(=O)C(=O)NCCc1ccc(Cl)cc1,AC50,Cytochrome P450 2D6,28.2 µM (inconclusive)
C[C@H](CC(C#N)(c1ccccc1)c1ccccc1)N1CCCCC1,AC50,Cytochrome P450 2C19,1.58 µM (inconclusive)
same,AC50,Cytochrome P450 3A4,3.98 µM (inconclusive)
CC(C)(C)NC(=O)c1ccc(NC(=O)c2ccccc2-c2ccccc2C(=O)O)cc1,IC50,cells,6.42 µM (active)
Cn1c(=O)c(-c2ccccc2)nc2cnc(Nc3ccccc3)nc21,AC50,Cytochrome P450 2C19,0.0398 µM (inconclusive)
